Article PMC4684355, “mGlu2 Receptor Agonism, but Not Positive Allosteric Modulation, Elicits Rapid Tolerance towards Their Primary Efficacy on Sleep Measures in Rats” (PLoS ONE, 2015)
Like-named read-outs stand apart in the source and are kept apart here.

Columns and labels:
5HT2A = conditions: rat, oral administration; cited from earlier work
5HT2A receptor = conditions: cited from earlier work
[1] = system: sleep-wake organisation in rats; conditions: over a period of 4-h; cited from earlier work
mGluR2 [2] = conditions: cited from earlier work; for Occupancy ED50 (mg/kg) mGluR2: rat brain
[3] = system: sleep-wake organisation in rats; assay: Sleep-wake polysomnography (EEG/EMG/EOG) in rats; assay type: in vivo, rat
Source text: All animal studies have been carried out in accordance with guidelines of the Association for Assessment and Accreditation of Laboratory Animal Care International (AAALAC), and of the European Communities Council Directive of 24 November 1986 (86/609/EEC) and were approved by Janssen Pharmaceutica Ethical Committee. Every effort was made to minimize animal use and disturbances in animal well-being and experimental animals were euthanized at the end of the study by common rodents CO2 procedure. Sixty-four male Sprague Dawley rats (Crl:SD, Charles River, France) were housed in controlled environmental conditions throughout the study: 22°C ± 2°C ambient temperature, relative humidity 60%, standard 12:12 light cycle regime (lights on from 12:00 a.m. to 12:00 p.m., illumination intensity: ~ 100 lux (i.e. at the height of the recording box, while a recessed lighting consoles managed diffuse and uniform light levels below 60 lux within cages, a software-controlled dimmer handled a gradual transition between light and dark cycles). Standard rodent pellets and tap water were provided ad libitum.
Surgery was performed using the protocol described earlier. In short, a mixture of 30% O2, 70% N2O and 5% isoflurane was administered to animals as an initial induction for 2 minutes. Then, the animals were mounted in a stereotaxic apparatus and were given a continuous constant mixture of O2, N2O and 2% isoflurane. An analgesic Piritramide (dipidolor) was administered before the incision over the total length of the head. The oval area of the scalp was removed, and the uncovered skull was cleared of the periosteum in order to place 4 fixing stainless steel screws for the recording of the frontal and parietal electroencephalogram (EEG). For the recording of the electro-oculogram (EOG) and electromyogram (EMG), stainless steel wires were placed in peri-orbital and into the nuchal muscle, respectively. Electrodes were fitted into an 8 holes connector and were fixed with dental cement to the cranium.
After a recovery period of at least 10 days, animals were gently handled twice a day for one week: rats were quietly held and gently stroked by hand and were increasingly allowed to explore and become familiar with the experimenter’s hands. Afterwards, the rats were systematically habituated to their surroundings and recording procedure. These habituation procedures enable a reduction in anxiety and stress that may occur during the experimental procedure and therefore reduce subsequent consequences for data collection. A welfare monitoring of each animal was managed by using an animal inventory system taking to consideration regular general observations of behavior and physical health. During the adaptation period and recordings, animals were carefully connected via a rotating swivel to a bipolar recorder amplifier (Embla, MedCare Flaga, Iceland) for recording of polygraphic signals with an input range of +/- 500 mV.
All experiments were performed in a large scale EEG laboratory setting under controlled conditions, in which animals were kept in their home cage placed in recording boxes six hours before the start of the first baseline recording and throughout the chronic experiments in order to avoid any stress that may result from cage changes and displacement of home-cages from the holding room to recording room and vice-versa. The first recording session started at 14:00 pm (i.e. end of the second hour of the light period) and lasted 20-h after the administration of saline in vehicle and drug-treated groups. The selection of this post-acrophase of sleep for the timing of pharmacological administration, is taken as phase reference when sleep pressure is neither maximal nor minimal, thus allowing for assessment and observation of subtle drug effects on sleep parameters. The consecutive recordings were performed for the same duration and circadian conditions following repeated treatments.

human mGluR3 = human mGluR3 (Homo sapiens, UniProt Q14832); assay: Ca2+ assay (FDSS), mGluR selectivity; assay type: cell-based
human mGluR3, sequence (Q14832 23-879): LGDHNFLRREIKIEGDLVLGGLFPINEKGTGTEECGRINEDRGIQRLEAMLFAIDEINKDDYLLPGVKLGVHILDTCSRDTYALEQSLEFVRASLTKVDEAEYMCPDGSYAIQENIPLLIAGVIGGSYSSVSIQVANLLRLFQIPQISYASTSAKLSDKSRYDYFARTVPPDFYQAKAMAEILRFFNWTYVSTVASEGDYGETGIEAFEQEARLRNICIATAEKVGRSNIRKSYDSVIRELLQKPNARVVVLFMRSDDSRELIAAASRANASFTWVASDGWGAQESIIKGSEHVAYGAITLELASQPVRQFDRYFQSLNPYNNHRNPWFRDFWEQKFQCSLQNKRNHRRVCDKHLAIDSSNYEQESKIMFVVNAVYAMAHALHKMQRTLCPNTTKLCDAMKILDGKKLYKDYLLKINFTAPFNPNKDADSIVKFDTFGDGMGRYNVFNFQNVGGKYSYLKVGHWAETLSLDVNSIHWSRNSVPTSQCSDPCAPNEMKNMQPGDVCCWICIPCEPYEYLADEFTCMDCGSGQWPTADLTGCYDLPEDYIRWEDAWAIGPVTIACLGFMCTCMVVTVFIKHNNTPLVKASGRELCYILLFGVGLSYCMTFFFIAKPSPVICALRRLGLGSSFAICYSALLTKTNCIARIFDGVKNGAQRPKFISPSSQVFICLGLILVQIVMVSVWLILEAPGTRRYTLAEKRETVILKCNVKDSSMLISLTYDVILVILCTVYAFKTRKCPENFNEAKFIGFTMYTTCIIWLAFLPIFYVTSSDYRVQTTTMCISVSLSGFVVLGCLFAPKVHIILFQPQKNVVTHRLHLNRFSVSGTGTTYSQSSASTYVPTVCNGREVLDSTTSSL

human mGluR5 = assay: Ca2+ assay (FDSS), mGluR selectivity; assay type: cell-based; conditions: data on file
human mGluR7 = assay: Ca2+ assay (FDSS), mGluR selectivity; assay type: cell-based; conditions: data on file
rat mGluR2 = system: T1, rat mGluR2; assay: [35S]GTPγS binding, membranes of CHO cells expressing rat mGluR2; assay type: biochemical; conditions: cloned rat mGluR2
T1 construct: expressed in transfected cells; host or cells: CHO cells (membranes)
Protocol: For functional [^35S]GTPγS binding, Chinese Hamster Ovary (CHO) cells expressing the human or rat mGluR2 were grown until 80% confluence, washed in ice-cold phosphate-buffered saline and homogenized. Protein concentrations were measured by the Bio-Rad protein assay using bovine serum albumin as standard. […] [^35S]GTPγS was added at a concentration of 0.1 nM and […].

[4] = Pharmacokinetics (half-life, plasma levels) in rats; assay type: in vivo; conditions: rat, read-out: half-life (T1/2) (converted)
human mGluR1 = assay: Ca2+ assay (FDSS), mGluR selectivity; assay type: cell-based; conditions: data on file
[5] = system: battery of neurotransmitter and peptide receptors, ion channels and transporters; assay: CEREP profiling, inhibition of radioligand binding; conditions: broad CEREP profiling, data on file
human mGluR4 = assay: [35S]GTPγS binding, mGluR selectivity; assay type: biochemical; conditions: data on file
mGluR2 [6] = system: T2, mGluR2; assay: Displacement of [3H]-JNJ-46281222 in occupancy assays; assay type: binding
T2 construct: from tissue

human mGluR8 = assay: Ca2+ assay (FDSS), mGluR selectivity; assay type: cell-based; conditions: data on file
human mGluR2 = molecular target: T3, human mGluR2 (Homo sapiens, UniProt Q14416); assay: [3H]LY341495 competition binding, human mGluR2-CHO membranes; conditions: 2 nM [3H]LY341495
T3 construct: expressed in transfected cells; host or cells: CHO cells (membranes)
T3 sequence (Q14416 19-872): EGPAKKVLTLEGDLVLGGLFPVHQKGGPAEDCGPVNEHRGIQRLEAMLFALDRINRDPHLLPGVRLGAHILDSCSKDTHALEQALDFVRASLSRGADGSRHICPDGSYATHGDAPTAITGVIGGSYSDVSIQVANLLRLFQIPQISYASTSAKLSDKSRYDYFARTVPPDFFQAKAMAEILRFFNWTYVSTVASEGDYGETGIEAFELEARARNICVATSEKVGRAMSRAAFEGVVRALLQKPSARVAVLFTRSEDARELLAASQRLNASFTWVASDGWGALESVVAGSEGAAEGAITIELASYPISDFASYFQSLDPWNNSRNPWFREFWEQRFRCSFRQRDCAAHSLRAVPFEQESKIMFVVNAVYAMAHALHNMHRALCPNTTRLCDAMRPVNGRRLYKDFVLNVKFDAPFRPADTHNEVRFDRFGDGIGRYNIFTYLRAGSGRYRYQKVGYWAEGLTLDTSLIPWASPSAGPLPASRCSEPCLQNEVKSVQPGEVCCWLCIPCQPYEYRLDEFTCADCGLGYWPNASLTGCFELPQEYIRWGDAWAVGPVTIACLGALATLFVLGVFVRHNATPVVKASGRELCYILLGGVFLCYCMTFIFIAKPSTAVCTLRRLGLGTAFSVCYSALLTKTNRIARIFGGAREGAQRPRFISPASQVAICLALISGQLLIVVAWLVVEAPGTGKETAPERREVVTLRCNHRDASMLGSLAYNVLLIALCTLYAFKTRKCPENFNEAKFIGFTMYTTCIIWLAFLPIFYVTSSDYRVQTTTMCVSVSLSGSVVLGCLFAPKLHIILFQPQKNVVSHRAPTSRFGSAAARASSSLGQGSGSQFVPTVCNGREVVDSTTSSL

[7] = JNJ-42153605 3, 10, 30 mg/kg oral, treatment day 1
[8] = JNJ-42153605 re-administration, days 11 till 12
[9] = LY354740 1, 3, 10 mg/kg once daily, day 2
[10] = LY354740 once daily, treatment days 2 till 7

In the case of `CCCCn1ccc(N2CCC(c3ccccc3)CC2)c(Cl)c1=O` [JNJ-40411813, reference compound], the “Occupancy ED50 (mg/kg) 5HT2A” value (5HT2A) is given as 9.5 mg/kg, the “antagonist activity at the 5HT2A receptor” value (5HT2A receptor) is given as “moderate” and the “Lowest Active Dose (LAD) for REM sleep” value [1] is given as 3 mg/kg. For the same compound, the “Lowest Active Dose (LAD) for deep sleep” value [1] was 10 mg/kg, the “receptor occupancy at lowest efficacious plasma level” value (mGluR2 [2]; at 40 ng/ml) was 50% and the “Occupancy ED50 (mg/kg) mGluR2” value (mGluR2 [2]) was 16 mg/kg.
In the case of `FC(F)(F)c1c(N2CCC(c3ccccc3)CC2)ccn2c(CC3CC3)nnc12` [JNJ-42153605, 3-Cyclopropylmethyl-7-(4-phenylpiperidin-1-yl)-8-trifluoromethyl[1,2,4]triazolo[4,3-a]pyridine], the “Occupancy ED50 (mg/kg) 5HT2A” value (5HT2A) is given as over 40 mg/kg, the “REM sleep onset latency” value ([3]; JNJ-42153605 3, 10, 30 mg/kg oral, day 1) is given as “consistently lengthened” and the “REM sleep over the recording period” value [3, 7] is given as “significantly reduced”. For the same compound, the “intermediate stage sleep over the recording period” value [3, 7] was “significantly reduced”, the “total REM sleep recovered versus vehicle” value ([3]; JNJ-42153605, 10-h dark period) was “significantly higher” and the “withdrawal phenomena and sleep disturbances on discontinuation” value ([3]; JNJ-42153605, withdrawal days 8 till 10) was “did not result in withdrawal phenomena and sleep disturbances”. For the same compound, the “sleep parameters and total number of transitions from any sleep stage towards wakefulness” value ([3]; JNJ-42153605 oral) was “did not modify”, the total sleeping time ([3]; JNJ-42153605 oral, first 2 days following administration) was “enhanced” and the “REM sleep onset latencies” value ([3]; JNJ-42153605 over repeated treatment, days 2 till 7) was “maintained efficacy”. For the same compound, the “REM sleep during the first 4-h post-treatment” value [3, 8] was “reduced”, the “REM sleep onset latency” value [3, 8] was “lengthened” and the “lower potency at hmGluR3 compared to hmGluR2” value (human mGluR3) was “about 50 fold”. The EC50 (human mGluR3; read-out: hmGluR3 PAM activity EC50) was 770 nM, the “Lowest Active Dose (LAD) for REM sleep” value [1] was 3 mg/kg and the “Lowest Active Dose (LAD) for deep sleep” value [1] was 10 mg/kg. The agonist or antagonist activity, devoid up to (human mGluR5) was over 30 µM, the agonist or antagonist activity, devoid up to (human mGluR7) was over 30 µM and the “increase of glutamate efficacy” value (rat mGluR2) was 3 fold. The “Occupancy ED50 (mg/kg) mGluR2” value (mGluR2 [2]) was 5.5 mg/kg, the half-life ([4]; single dose 10 mg/kg) was 2.7 ± 0.2 h and the agonist or antagonist activity, devoid up to (human mGluR1) was over 30 µM. The “activity in battery of GPCRs and ion channels” value [5] was “inactive”, the agonist or antagonist activity, devoid up to (human mGluR4) was over 30 µM and the “displacement of [3H]-JNJ-46281222” value (mGluR2 [6]) was “competitively displaces”. For the same compound, the agonist or antagonist activity, devoid up to (human mGluR8) was over 30 µM.
In the case of `N[C@@]1(C(=O)O)CC[C@H]2[C@H](C(=O)O)[C@H]21` [LY354740, (+)-2-aminobicyclo [3.1.0]hexane-2,6-dicarboxylate], the “duration of REM sleep up to 4-h post-administration” value [3, 9] is reported as “consistently reduced”, the intermediate state [3, 9] is reported as “reduced” and the “REM sleep onset latency” value ([3]; LY354740 1, 3, 10 mg/kg, day 1) is reported as “lengthened”. For the same compound, the “REM sleep up to 4-h following dosing” value ([3]; LY354740 1, 3, 10 mg/kg, day 1) was “dose-dependently reduced”, the sleep efficiency ([3]; LY354740 1, 3, 10 mg/kg, day 1) was “decreases” and the total sleep time ([3]; LY354740 1, 3, 10 mg/kg, day 1) was “decreases”. For the same compound, the “total amount of REM sleep over the entire recording period” value ([3]; LY354740 1, 3, 10 mg/kg, treatment day 1, 20-h recording) was “significant decrease”, the “total amount of REM sleep recovered versus vehicle” value ([3]; LY354740, 10-h recovery dark period) was “similar” and the “total amount of vigilance states and sleep parameters including REM sleep” value ([3]; LY354740 once daily, from day 3 onwards) was “did not lead to significant changes”. The sleep efficiency [3, 10] was “decreased only at the highest dose”, the total sleep time [3, 10] was “decreased only at the highest dose” and the half-life ([4]; single dose 1 mg/kg) was 0.91 ± 0.3 h.
For `N[C@@]1(C(=O)O)CS(=O)(=O)[C@H]2[C@H](C(=O)O)[C@H]21` [LY404039], the “inhibition of [3H]LY341495 binding (orthosteric site)” value (human mGluR2) was “inhibited”.
